# Measured values published in patent publication US20070249590A1, “Substituted indolo[2,3-a]pyrrolo[3,4-c]carbazole compounds useful in treating kinase disorders” (priority 2005, published 2007).
# Biological target: T1, JAK3 (JH1 and JH2 domain) (Homo sapiens, UniProt P52333)
# T1 sequence (P52333 521-1111 limits assumed): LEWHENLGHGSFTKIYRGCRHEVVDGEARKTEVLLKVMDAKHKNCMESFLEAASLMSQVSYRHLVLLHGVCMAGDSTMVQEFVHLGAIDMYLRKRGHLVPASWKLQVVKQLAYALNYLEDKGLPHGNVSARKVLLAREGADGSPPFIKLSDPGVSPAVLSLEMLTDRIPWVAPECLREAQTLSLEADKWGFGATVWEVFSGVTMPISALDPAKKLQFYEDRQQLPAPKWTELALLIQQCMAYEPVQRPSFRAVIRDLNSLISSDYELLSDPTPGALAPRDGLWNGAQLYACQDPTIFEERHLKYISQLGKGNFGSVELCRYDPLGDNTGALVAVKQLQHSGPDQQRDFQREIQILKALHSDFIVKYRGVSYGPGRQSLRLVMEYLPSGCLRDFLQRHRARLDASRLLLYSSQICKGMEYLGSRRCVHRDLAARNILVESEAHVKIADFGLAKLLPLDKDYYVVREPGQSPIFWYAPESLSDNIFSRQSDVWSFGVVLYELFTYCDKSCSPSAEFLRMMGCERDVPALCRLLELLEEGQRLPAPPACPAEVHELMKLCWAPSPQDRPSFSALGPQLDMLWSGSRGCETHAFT
# Experiment: JAK3 Kinase Assay (ELISA of peptide substrate phosphorylation)
# Type: biochemical
# Details: purified JAK3 enzyme, 10 μM ATP, biotinylated peptide substrate, 1 hour at room temperature
# Outline: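 Sf21-baculovirus-expressed JAK3 (JH1+JH2), glutathione-bead purified, with biotinylated peptide substrate (in buffer containing 10 μM ATP) in HEPES pH 7.5/MgCl2/DTT, 1 h RT. Product was captured on Neutravidin, detected with HRP anti-phosphotyrosine (PY99)/TMB, OD 450/650 nm. Triplicate 16-point half-log series from 200 μM gave IC50; otherwise % inhibition at 1 μM.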
row,SMILES,IC50 [nM]
1,"O=C(O)/C=C/c1ccc2c(c1)c1c3c(c4c5ccccc5n5c4c1n2CC(CO)C5)CNC3=O (centres unmarked) [Cpd 218, 3-[(2E)-2-carboxy-ethenyl]-12,13-(2-hydroxymethyl-propan-1,3-yl)-6,7,12,13-tetrahydro-5-oxo-5H-indolo[2,3-a]pyrrolo[3,4-c]carbazole]",686
2,"O=C1NCc2c1c1c3ccccc3n3c1c1c2c2ccccc2n1CC(COC(=O)N1CCN(CCO)CC1)C3 (centres unmarked) [Cpd 164, 12,13-(2-{[4-(2-hydroxy-ethyl)piperazin-1-yl]carbonyloxymethyl}-propan-1,3-yl)-6,7,12,13-tetrahydro-5-oxo-5H-indolo[2,3-a]pyrrolo[3,4-c]carbazole]",377
3,"COc1ccc2[nH]cc(CCNC(=O)OC3Cn4c5ccccc5c5c6c(c7c8ccccc8n(c7c54)CC3O)C(=O)NC6=O)c2c1 (centres unmarked) [Cpd 87, 12,13-(2-{[2-(5-methoxy-1H-indol-3-yl)ethyl]carbamoyloxy}-3-hydroxy-butan-1,4-yl)-12,13-dihydro-5,7-dioxo-6H-indolo[2,3-a]pyrrolo[3,4-c]carbazole]",169
4,"CN1CCC(Nc2ccc3c(c2)c2c4c(c5c6ccccc6n6c5c2n3CC(O)C(O)C6)CNC4=O)CC1 (centres unmarked) [Cpd 204, 3-[(1-methyl-piperidin-4-yl)amino]-12,13-(2,3-dihydroxy-butan-1,4-yl)-6,7,12,13-tetrahydro-5-oxo-5H-indolo[2,3-a]pyrrolo[3,4-c]carbazole]",169
5,"CC(C)(C)NC(=O)OC1CCn2c3ccccc3c3c4c(c5c6ccccc6n(c5c32)C1)C(=O)NC4=O (centres unmarked) [Cpd 40, 12,13-[2-(t-butylcarbamoyloxy)-butan-1,4-yl]-12,13-dihydro-5,7-dioxo-6H-indolo[2,3-a]pyrrolo[3,4-c]carbazole]",> 400
6,"CN1CCC(N(C)Cc2ccc3c(c2)c2c4c(c5c6ccccc6n6c5c2n3CC(O)C(O)C6)CNC4=O)CC1 (centres unmarked) [Cpd 196, 3-{[N-methyl-N-(1-methyl-piperidin-4-yl)]aminomethyl}-12,13-(2,3-dihydroxy-butan-1,4-yl)-6,7,12,13-tetrahydro-5-oxo-5H-indolo[2,3-a]pyrrolo[3,4-c]carbazole]",~1000
7,"CN(C)CCCN1CCN(C(=O)OC2CCn3c4ccccc4c4c5c(c6c7ccccc7n(c6c43)C2)C(=O)NC5=O)CC1 (centres unmarked) [Cpd 68, 12,13-(2-{[4-(3-dimethylamino-prop-1-yl)piperazin-1-yl]carbonyloxy}-butan-1,4-yl)-12,13-dihydro-5,7-dioxo-6H-indolo[2,3-a]pyrrolo[3,4-c]carbazole]",433
8,"O=C1NCc2c1c1c3ccccc3n3c1c1c2c2ccccc2n1CC(COC(=O)N1CCN(c2ccc(O)cc2)CC1)C3 (centres unmarked) [Cpd 158, 12,13-(2-{[4-(4-hydroxy-phenyl)piperazin-1-yl]carbonyloxymethyl}-propan-1,3-yl)-6,7,12,13-tetrahydro-5-oxo-5H-indolo[2,3-a]pyrrolo[3,4-c]carbazole]",123
9,"CN1CCN(C(=O)OC2CCn3c4ccccc4c4c5c(c6c7ccccc7n(c6c43)C2)C(=O)NC5=O)CC1 (centres unmarked) [Cpd 51, 12,13-{2-[(4-methyl-piperazin-1-yl)carbonyloxy]-butan-1,4-yl}-12,13-dihydro-5,7-dioxo-6H-indolo[2,3-a]pyrrolo[3,4-c]carbazole]",> 400
10,"CC(C)(C)OC(=O)N1CCC(NC(=O)OCC2(O)Cn3c4ccccc4c4c5c(c6c7ccccc7n(c6c43)C2)C(=O)NC5)CC1 (centres unmarked) [Cpd 177, 12,13-{2-hydroxy-2-[(1-t-butoxycarbonyl-piperidin-4-yl)carbamoyloxymethyl]-propan-1,3-yl}-6,7,12,13-tetrahydro-5-oxo-5H-indolo[2,3-a]pyrrolo[3,4-c]carbazole]",143
11,"O=C1NC(=O)c2c1c1c3ccccc3n3c1c1c2c2ccccc2n1CC(OC(=O)N1CCN(C(c2ccccc2)c2ccccc2)CC1)CC3 (centres unmarked) [Cpd 62, 12,13-{2-[(4-benzhydryl-piperazin-1-yl)carbonyloxy]-butan-1,4-yl}-12,13-dihydro-5,7-dioxo-6H-indolo[2,3-a]pyrrolo[3,4-c]carbazole]",496
12,"O=C1NC(=O)c2c1c1c3ccccc3n3c1c1c2c2ccccc2n1CC(OC(=O)N1CCN(c2ccncc2)CC1)C(O)C3 (centres unmarked) [Cpd 96, 12,13-{2-[(4-pyridin-4-yl-piperazin-1-yl)carbonyloxy]-3-hydroxy-butan-1,4-yl}-12,13-dihydro-5,7-dioxo-6H-indolo[2,3-a]pyrrolo[3,4-c]carbazole]",295
13,"CN(C)CCNC(=O)OC1Cn2c3ccccc3c3c4c(c5c6ccccc6n(c5c32)CC1O)C(=O)NC4=O (centres unmarked) [Cpd 77, 12,13-[2-[(2-dimethylamino-ethyl)carbamoyloxy]-3-hydroxy-butan-1,4-yl]-12,13-dihydro-5,7-dioxo-6H-indolo[2,3-a]pyrrolo[3,4-c]carbazole]",86

# The next lines start with the values.
row,IC50 [nM],SMILES
1,52,"COCCNC(=O)C1(O)Cn2c3ccccc3c3c4c(c5c6ccccc6n(c5c32)CC1O)C(=O)NC4=O (centres unmarked) [Cpd 124, 12,13-{2-[(2-methoxy-ethyl)carbamoyl]-2,3-dihydroxy-butan-1,4-yl}-12,13-dihydro-5,7-dioxo-6H-indolo[2,3-a]pyrrolo[3,4-c]carbazole]"
2,80,"CC(C)NC(=O)C1(O)Cn2c3ccccc3c3c4c(c5c6ccccc6n(c5c32)CC1O)C(=O)NC4=O (centres unmarked) [Cpd 123, 12,13-[2-(isopropyl-carbamoyl)-2,3-dihydroxy-butan-1,4-yl]-12,13-dihydro-5,7-dioxo-6H-indolo[2,3-a]pyrrolo[3,4-c]carbazole]"
3,26,"O=C1NCc2c1c1c3ccccc3n3c1c1c2c2ccccc2n1CC(O)(COC(=O)N1CCCNCC1)C3 (centres unmarked) [Cpd 146, 12,13-{2-hydroxy-2-[(hexahydro-1H-1,4-diazepin-1-yl)carbonyloxymethyl]-propan-1,3-yl}-6,7,12,13-tetrahydro-5-oxo-5H-indolo[2,3-a]pyrrolo[3,4-c]carbazole]"
4,15,"CN(C)C1CCN(C(=O)C2(O)Cn3c4ccccc4c4c5c(c6c7ccccc7n(c6c43)CC2O)C(=O)NC5=O)C1 (centres unmarked) [Cpd 119, 12,13-{2-[(3-dimethylamino-pyrrolidin-1-yl)carbonyl]-2,3-dihydroxy-butan-1,4-yl}-12,13-dihydro-5,7-dioxo-6H-indolo[2,3-a]pyrrolo[3,4-c]carbazole]"
5,53,"O=C1NC(=O)c2c1c1c3ccccc3n3c1c1c2c2ccccc2n1CC(O)(C(=O)N1CCN(CCN2CCOCC2)CC1)C(O)C3 (centres unmarked) [Cpd 134, 12,13-(2-{[4-(2-morpholin-4-yl-ethyl)piperazin-1-yl]carbonyl}-2,3-dihydroxy-butan-1,4-yl)-12,13-dihydro-5,7-dioxo-6H-indolo[2,3-a]pyrrolo[3,4-c]carbazole]"
6,12,"O=C1NCc2c1c1c3ccccc3n3c1c1c2c2ccccc2n1CCC(O)C(O)CC3 (centres unmarked) [Cpd 21, 12,13-(3,4-dihydroxy-hexan-1,6-yl)-6,7,12,13-tetrahydro-5-oxo-5H-indolol[2,3-a]pyrrolo[3,4-c]carbazole]"
7,3,"O=C1NCc2c1c1c3ccccc3n3c1c1c2c2cc(CO)ccc2n1CC(CO)C3 (centres unmarked) [Cpd 212, 9-hydroxymethyl-12,13-(2-hydroxymethyl-propan-1,3-yl)-6,7,12,13-tetrahydro-5-oxo-5H-indolo[2,3-a]pyrrolo[3,4-c]carbazole]"
8,72,"C/C1=C(\C)Cn2c3ccccc3c3c4c(c5c6ccccc6n(c5c32)C1)CNC4=O [Cpd 4, 12,13-(2,3-dimethyl-but-2-en-1,4-yl)-6,7,12,13-tetrahydro-5-oxo-5H-indolo[2,3-a]pyrrolo[3,4-c]carbazole]"
9,84,"COCCNC(=O)OCC1Cn2c3ccccc3c3c4c(c5c6ccccc6n(c5c32)C1)C(=O)NC4 (centres unmarked) [Cpd 154, 12,13-{2-[(2-methoxy-ethyl)carbamoyloxymethyl]propan-1,3-yl]-6,7,12,13-tetrahydro-5-oxo-5H-indolo[2,3-a]pyrrolo[3,4-c]carbazole]"
10,78,"O=C1NC(=O)c2c1c1c3ccccc3n3c1c1c2c2ccccc2n1CC(O)(C(=O)N1CCN(c2ccccn2)CC1)C(O)C3 (centres unmarked) [Cpd 131, 12,13-{2-[(4-pyridin-2-yl-piperazin-1-yl)carbonyl]-2,3-dihydroxy-butan-1,4-yl}-12,13-dihydro-5,7-dioxo-6H-indolo[2,3-a]pyrrolo[3,4-c]carbazole]"
11,53,"O=C1NCc2c1c1c3ccccc3n3c1c1c2c2ccccc2n1C[C@@H](O)[C@H](O)C3 [Cpd 19, 12,13-[(2R,3R)-dihydroxy-butan-1,4-yl]-6,7,12,13-tetrahydro-5-oxo-5H-indolo[2,3-a]pyrrolo[3,4-c]carbazole]"
12,47,"O=C(NC1CCNCC1)OC1Cn2c3ccccc3c3c4c(c5c6ccccc6n(c5c32)CC1O)C(=O)NC4=O (centres unmarked) [Cpd 113, 12,13-[2-(piperidin-4-yl-carbamoyloxy)-3-hydroxy-butan-1,4-yl]-12,13-dihydro-5,7-dioxo-6H-indolo[2,3-a]pyrrolo[3,4-c]carbazole]"
13,31,"O=C(NC1CCN(Cc2ccccc2)CC1)OCC1(O)Cn2c3ccccc3c3c4c(c5c6ccccc6n(c5c32)C1)C(=O)NC4 (centres unmarked) [Cpd 145, 12,13-{2-hydroxy-2-[(1-benzyl-piperidin-4-yl)carbamoyloxymethyl]-propan-1,3-yl}-6,7,12,13-tetrahydro-5-oxo-5H-indolo[2,3-a]pyrrolo[3,4-c]carbazole]"
